# Source: patent US5242926A, “Therapeutic composition for treating hyperthyroidism” (priority 1992, dated 1993)
# Entries after “also recorded” stand apart in the source; their conditions may differ.
# Experiments:
# [1] = tested on: TSH, T3, T4, FT3 and FT4 in bloods; assay: Effect of PBT and THP on serum TSH, T3, T4, FT3, FT4, normal rats (Experiment 3); type: in vivo, female Sprague-Dawley rats
# Method: The female Sprague-Dawley rats, each weights 270±15 grams, are divided into 5 groups of 6 rats, for following daily treatment for continuous 10 days, except a normal group for control.
# On the eleventh days, each rat is injected (I.P.) with pentobarbital 50 mg/kg and narcotized for extracting arterial blood which is settled for 2 hours at room temperature and centrifuged at 2500 rpm for 10 minutes to separate the serum. The concentrations of TSH, T3, T4, FT3 and FT4 in bloods are analyzed by RIA methods. The normal control group is treated with saline and analyzed by the same methods.
# [2] = tested on: blood cholesterol and triglyceride in rats; assay: Effects of THP on blood cholesterol, triglyceride and T4 in L-T4 induced hyperthyroidism rats (Experiment 5); type: in vivo, rats (Sprague-Dawley); settings: 10 days
# [3] = tested on: hyperthyroidism in rats (TSH, T3, T4, FT3 and FT4 in the bloods); assay: Effect of PBT and THP on serum TSH, T3, T4, FT3, FT4, L-T4 induced hyperthyroidism rats (Experiment 3); type: in vivo, female Sprague-Dawley rats
# Method: (§1) The female Sprague-Dawley rats, each weighs 260±15 grams, are divided into 5 groups of 6 rats, each rat being subcutaneously injected (s.c.) with L-T4 300 μg/kg daily for continuous 12 days to induce hyperthyroidism in each rats. […] The control group is treted with saline. After continuous treatment of 10 days as described above, each rat is injected (I.P.) with pentobarbitol 50 mg/kg and narcotized on the eleventh day, and then extracted the arterial blood for measuring concentrations of TSH, T3, T4, FT3 and FT4 in the bloods.
# [4] = tested on: blood cholesterol and triglyceride in rats; assay: Effects of THP on blood cholesterol, triglyceride and T4 in L-T4 induced hyperthyroidism rats (Experiment 5); type: in vivo, rats (Sprague-Dawley); settings: 10 days; remark: listed apart in the source
# Method: as §1
# [5] = tested on: thyroid function of normal rats; assay: Effect of dl-tetrahydropalmatine (THP) on thyroid function of normal rats (Experiment 4)
# Method: (§2) On the 15th day, each rat is intraperitoneally injected with pentobarbital 50 mg/kg and narcotized. The rat abdominal cavity is cut to take the thyroid out for weighing and for examining pathological section, which is stained with H-E stain to facilitate observation of pathologic changes.
# The method of experiment 1 is repeated by daily treating dl-tetrahydropalmatine (THP) 2.5 mg/kg, 5.0 mg/kg and 10 mg/kg (I.P.) respectively for continuous 14 days.
# rat thyroid = assay: Effect of each extracted layer of Corydalis on rat thyroid: body and thyroid weight, normal rats (Experiment 1); settings: 50 mg/kg daily p.o., 14 days, vs control
# Method: ICR mice may be used as testing animals in this invention, each having a weight of 18-25 grams. Sprague-Dawley rats each having a weight of 240±10 grams may also be used in this invention.
# The mice or rats are placed in a metal cage by feeding 5 mice per group in each cage with solid foods and distilled water at least 1 week before performing the experiment at […] and humidity of 55±5%.
# as §2
# [6] = tested on: rat thyroid, pituitary and suprarenal gland; assay: Effect of THP on rat thyroid, pituitary and suprarenal gland weight (Experiment 6); type: in vivo, rats (Sprague-Dawley); settings: PTU, 14 days
# thyroid follicle cells = assay: Thyroid pathological section, H-E stain, normal rats (Experiment 1); type: in vivo, female Sprague-Dawley rats; settings: 50 mg/kg daily p.o., 14 days
# [7] = tested on: hyperthyroidism in rats (TSH, T3, T4, free T3 and free T4 in the serum); assay: Serum TSH, T3, T4, FT3, FT4 by RIA, L-T4 induced hyperthyroidism rats (Experiment 2); type: in vivo, female Sprague-Dawley rats
# Method: The female Sprague-Dawley rats each having a weight of 250±10 grams are subcutaneously injected (S.C.) for 12 days with a daily dose of 300 μg/kg for each rat to induce hyperthyroidism. […] Then, the rat abdominal cavity is cut to extract arterial blood which is settled for 2 hours at room temperature and is centrifuged at 2500 rpm for 10 minutes for separating the serum.
# The concentrations of TSH, T3, T4, free T3 and free T4 in the serum by RIA methods.
# [8] = THP 50 mg/kg [sic], i.p., 10 days
# [9] = hyperthyroidism rats, THP 2.5 mg/kg i.p.
# [10] = hyperthyroidism rats, THP 5 mg/kg i.p.
# [11] = hyperthyroidism rats, THP 10.0 mg/kg i.p.
# [12] = L-T4 induced hyperthyroidism rats, THP 5 mg/kg i.p., 10 days
# [13] = hyperthyroidism rats, THP 5 mg/kg, I.P.
# [14] = hyperthyroidism rats, PTU 5.0 mg/kg
# [15] = L-T4 induced hyperthyroidism rats, PTU 5 mg/kg p.o., 10 days
structure (smiles),measurement,setting,value
"COc1cc2c(cc1OC)C1Cc3ccc(OC)c(OC)c3CN1CC2 (racemic) [THP, dl-tetrahydropalmatine]",FT3,[1]; [8],1.18 ± 0.01 ng/dL
same,FT4,[1]; [8],1.97 ± 0.14 ng/dL
same,T3,[1]; [8],49.05 ± 2.45 µg/dL
same,T4,[1]; [8],2.32 ± 0.25 µg/dL
same,TSH,[1]; [8],1.89 ± 0.13 μu/ml
same,effect on cholesterol compared with PTU (in words),[2]; THP i.p.,increases the cholesterol by a much smaller amount than PTU
same,Cholesterol,[2]; [9],57.5 ± 3.5 mg/dL
same,Triglyceride,[2]; [9],29.5 ± 3.5 mg/dL
same,Cholesterol,[2]; [10],58.5 ± 3.4 mg/dL
same,Triglyceride,[2]; [10],31.1 ± 5.4 mg/dL
same,Cholesterol,[2]; [11],56.5 ± 4.6 mg/dL
same,Triglyceride,[2]; [11],30.6 ± 5.1 mg/dL
same,effect on triglyceride compared with PTU (in words),"[2]; hyperthyroidism rats, THP i.p.",may reduce the triglyceride of the hyperthyroidism rats to be superior to PTU
same,FT3,[3]; [12],1.42 ± 0.62 ng/dL
same,FT4,[3]; [12],5.27 ± 1.05 ng/dL
same,T3,[3]; [12],42.36 ± 4.25 ng/dL
same,T4,[3]; [12],4.91 ± 0.17 µg/dL
same,TSH,[3]; [12],0.77 ± 0.10 μu/ml
same,"effect on T3, T4, FT3 and FT4 (in words, summary)",[3]; hyperthyroidism rats,"may markedly decrease the concentration of T3, T4, FT3 and FT4"
same,"effect on TSH (in words, summary)",[3]; hyperthyroidism rats,will not influence the TSH concentration in the blood
same,"effect on T3, T4, FT3 and FT4 (in words)",[3]; [13],"will greatly reduce T3 (P<0.01), T4 (P<0.05), FT3 (P<0.01) and FT4 (P<0.01)"
same,effect on TSH (in words),[3]; [13],no remarkable influence on TSH concentration
same,pharmacological effect relative to PBT (in words),"[3]; hyperthyroidism rats, THP dosage much smaller than PBT dose",not less than that of the PBT
same,T4,[4]; THP 2.5 mg/kg i.p.,3.3 ± 0.4 µg/dL
same,T4,[4]; THP 5 mg/kg i.p.,3.1 ± 0.5 µg/dL
same,T4,[4]; THP 10.0 mg/kg i.p.,3.2 ± 0.5 µg/dL
same,FT3,"[5]; THP 2.5 mg/kg i.p., 14 days",1.3 ± 0.1 ng/dL
same,FT4,"[5]; THP 2.5 mg/kg i.p., 14 days",1.7 ± 0.5 ng/dL
same,T3,"[5]; THP 2.5 mg/kg i.p., 14 days",56.8 ± 3.1 ng/dL
same,T4,"[5]; THP 2.5 mg/kg i.p., 14 days",2.3 ± 0.5 µg/dL
same,TSH,"[5]; THP 2.5 mg/kg i.p., 14 days",1.9 ± 0.1 μu/ml
same,FT3,"[5]; THP 5.0 mg/kg i.p., 14 days",1.2 ± 0.2 ng/dL
same,FT4,"[5]; THP 5.0 mg/kg i.p., 14 days",2.1 ± 0.2 ng/dL
same,T3,"[5]; THP 5.0 mg/kg i.p., 14 days",58.8 ± 3.7 ng/dL
same,T4,"[5]; THP 5.0 mg/kg i.p., 14 days",2.5 ± 0.2 µg/dL
same,TSH,"[5]; THP 5.0 mg/kg i.p., 14 days",2.5 ± 0.4 μu/ml
same,FT4,"[5]; THP 10.0 mg/kg i.p., 14 days",1.9 ± 1.5 ng/dL
same,T3,"[5]; THP 10.0 mg/kg i.p., 14 days",49.1 ± 2.5 ng/dL
same,T4,"[5]; THP 10.0 mg/kg i.p., 14 days",2.3 ± 0.3 µg/dL
same,TSH,"[5]; THP 10.0 mg/kg i.p., 14 days",1.9 ± 0.1 μu/ml
same,"effect on T3, T4, FT3, FT4 and TSH (in words)","[5]; THP 2.5, 5.0 and 10 mg/kg i.p., 14 days","no influence on the concentrations of T3, T4, FT3, FT4 and TSH"
"CCCc1cc(=O)[nH]c(=S)[nH]1 [PTU, propylthiouracil]","effect on T3, T4, FT3 and FT4 (in words)",[1]; PTU 5 mg/kg P.O.,"will remarkably reduce T3 (P<0.001), T4 (P<0.001), FT3 (P<0.001) and FT4 (P<0.001)"
same,TSH,"[1]; PTU 5 mg/kg P.O., increase from 2.28±0.16 μu/ml, P<0.001",4.54±0.01 μm/ml
same,FT3,"[1]; PTU 5 mg/kg p.o., 10 days",0.37 ± 0.10 ng/dL
same,FT4,"[1]; PTU 5 mg/kg p.o., 10 days",0.35 ± 0.09 ng/dL
same,T3,"[1]; PTU 5 mg/kg p.o., 10 days",31.77 ± 3.10 µg/dL
same,T4,"[1]; PTU 5 mg/kg p.o., 10 days",0.92 ± 0.14 µg/dL
same,TSH,"[1]; PTU 5 mg/kg p.o., 10 days",4.54 ± 0.41 μu/ml
same,changes in thyroid weight (in words),rat thyroid,clearly shows an increase thyroid weight (P<0.001); also recorded: may increase thyroid weight
same,Cholesterol,[2]; [14],73.9 ± 3.2 mg/dL
same,T4,[2]; [14],1.2 ± 0.2 µg/dL
same,Triglyceride,[2]; [14],35.6 ± 3.2 mg/dL
same,effect on follicle cells and colloid (in words),[6],expansion of follicle cells and colloidal loss
same,effect on thyroid weight (in words),[6],increase of thyroid weight
same,FT3,[3]; [15],2.01 ± 0.25 ng/dL
same,FT4,[3]; [15],3.24 ± 0.98 ng/dL
same,T3,[3]; [15],30.25 ± 3.25 ng/dL
same,T4,[3]; [15],1.95 ± 0.25 µg/dL
same,TSH,[3]; [15],3.98 ± 0.51 μu/ml
same,"effect on T3, T4, FT3 and FT4 (in words)","[3]; hyperthyroidism rats, PTU 5 mg/kg, P.O.","may decrease the T3 (P<0.001), T4 (P<0.001), FT3 (P<0.001) and FT4 (P<0.001)"
same,TSH,"[3]; hyperthyroidism rats, PTU 5 mg/kg, P.O., increase from 0.99±0.11, P<0.001",3.98 ± 0.51 µg/mL
same,pathologic section of the thyroid (in words),thyroid follicle cells,"remarkable expansion of the thyroid follicle cells and their colloidal loss; also recorded: will cause the formation of follicle cells, and loss of colloid"
same,"effect on T3, T4, FT3 and FT4 (in words)",[7]; PTU 5 mg/kg,"may remarkably reduce the concentrations of T3 (P <0.001), T4 (P<0.001), FT3 (P<0.01) and FT4 (P<0.001)"
same,effect on TSH (in words),[7]; PTU 5 mg/kg,remarkably increase TSH (P<0.01)
same,FT3,[7]; PTU 5 mg/kg p.o.,0.44 ± 0.02 ng/dL
same,FT4,[7]; PTU 5 mg/kg p.o.,0.47 ± 0.04 ng/dL
same,T3,[7]; PTU 5 mg/kg p.o.,17.92 ± 1.43 ng/dL
same,T4,[7]; PTU 5 mg/kg p.o.,1.11 ± 0.02 µg/dL
same,TSH,[7]; PTU 5 mg/kg p.o.,3.98 ± 0.40 µg/mL
same,"effect on T3, T4, FT3 and FT4 (in words)",[5]; PTU,"reduces the T3, T4, FT3 and FT4"
same,effect on TSH (in words),[5]; PTU,increases the TSH concentration
same,effect on thyroid follicle cells and colloid (in words),[5]; PTU,expand thyroid follicle cells and cause colloidal loss
same,FT3,[5]; PTU 5.0 mg/kg,0.4 ± 0.1 ng/dL
same,FT4,[5]; PTU 5.0 mg/kg,0.4 ± 0.1 ng/dL
same,T3,[5]; PTU 5.0 mg/kg,31.8 ± 3.1 ng/dL
same,T4,[5]; PTU 5.0 mg/kg,0.9 ± 0.1 µg/dL
same,TSH,[5]; PTU 5.0 mg/kg,4.5 ± 0.4 μu/ml
